Data: the kinase profiling compilation of Christmann-Franck et al. (2016)

Columns and labels:
Experiment in all cases: radiometric filter-binding kinase assay
AURKB (human) = AURKB (human) (UniProt Q96GD4)
PHKG1 (human) = PHKG1 (human) (UniProt Q16816)
ABL1 (human) = ABL1 (human) (UniProt P00519)
PRKCG (human) = PRKCG (human) (UniProt P05129)
PTK6 (human) = PTK6 (human) (UniProt Q13882)
STK16 (human) = STK16 (human) (UniProt O75716)
STK33 (human) = STK33 (human) (UniProt Q9BYT3)
TEK (human) = TEK (human) (UniProt Q02763)
Sequence of TEK (human) (Q02763 whole entry, looked up): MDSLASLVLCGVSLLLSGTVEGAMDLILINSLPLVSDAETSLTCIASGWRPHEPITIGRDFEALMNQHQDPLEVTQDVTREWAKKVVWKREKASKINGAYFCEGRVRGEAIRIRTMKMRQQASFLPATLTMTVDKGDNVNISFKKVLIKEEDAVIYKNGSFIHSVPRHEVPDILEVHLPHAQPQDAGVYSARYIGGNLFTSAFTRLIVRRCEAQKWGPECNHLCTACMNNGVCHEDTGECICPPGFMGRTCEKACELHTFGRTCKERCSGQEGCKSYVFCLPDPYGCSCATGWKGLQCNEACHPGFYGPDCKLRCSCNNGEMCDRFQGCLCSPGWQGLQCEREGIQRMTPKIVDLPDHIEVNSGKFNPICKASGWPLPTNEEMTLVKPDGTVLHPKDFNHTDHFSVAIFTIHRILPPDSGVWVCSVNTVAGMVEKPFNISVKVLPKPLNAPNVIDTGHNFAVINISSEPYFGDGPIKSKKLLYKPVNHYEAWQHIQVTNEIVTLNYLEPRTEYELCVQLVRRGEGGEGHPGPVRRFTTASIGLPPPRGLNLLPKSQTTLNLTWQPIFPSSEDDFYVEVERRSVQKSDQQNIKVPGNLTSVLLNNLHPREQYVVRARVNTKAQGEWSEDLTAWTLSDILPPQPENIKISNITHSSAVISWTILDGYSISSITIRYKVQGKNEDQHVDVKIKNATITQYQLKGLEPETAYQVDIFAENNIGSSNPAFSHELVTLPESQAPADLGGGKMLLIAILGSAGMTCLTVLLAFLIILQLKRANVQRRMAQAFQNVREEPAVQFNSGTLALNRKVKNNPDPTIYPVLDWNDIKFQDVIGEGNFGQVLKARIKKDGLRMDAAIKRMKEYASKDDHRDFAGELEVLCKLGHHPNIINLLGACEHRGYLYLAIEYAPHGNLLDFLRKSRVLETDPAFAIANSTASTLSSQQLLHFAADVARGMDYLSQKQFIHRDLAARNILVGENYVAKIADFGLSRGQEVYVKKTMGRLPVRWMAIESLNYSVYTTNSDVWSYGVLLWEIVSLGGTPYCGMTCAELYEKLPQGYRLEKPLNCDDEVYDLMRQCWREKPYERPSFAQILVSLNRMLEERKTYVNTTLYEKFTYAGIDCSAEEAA

ZAP70 (human) = ZAP70 (human) (UniProt P43403)
Sequence of ZAP70 (human) (P43403 whole entry, looked up): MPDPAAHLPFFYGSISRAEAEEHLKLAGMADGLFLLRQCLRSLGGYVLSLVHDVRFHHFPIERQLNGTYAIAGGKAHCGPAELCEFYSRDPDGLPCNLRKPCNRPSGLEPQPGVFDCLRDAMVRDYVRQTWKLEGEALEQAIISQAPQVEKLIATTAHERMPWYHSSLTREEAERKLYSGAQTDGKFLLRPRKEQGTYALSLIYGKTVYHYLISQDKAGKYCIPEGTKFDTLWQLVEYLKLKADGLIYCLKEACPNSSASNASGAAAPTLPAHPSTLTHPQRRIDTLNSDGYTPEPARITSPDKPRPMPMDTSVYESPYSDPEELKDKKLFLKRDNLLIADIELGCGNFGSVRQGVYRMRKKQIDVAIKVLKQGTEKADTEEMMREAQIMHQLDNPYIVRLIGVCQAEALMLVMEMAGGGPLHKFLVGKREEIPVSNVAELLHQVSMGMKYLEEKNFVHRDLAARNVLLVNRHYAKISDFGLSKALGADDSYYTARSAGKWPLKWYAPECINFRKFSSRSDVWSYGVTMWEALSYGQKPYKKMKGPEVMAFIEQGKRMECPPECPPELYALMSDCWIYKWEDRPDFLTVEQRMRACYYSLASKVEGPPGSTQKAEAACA

Sequence of PHKG1 (human) (Q16816 whole entry, looked up): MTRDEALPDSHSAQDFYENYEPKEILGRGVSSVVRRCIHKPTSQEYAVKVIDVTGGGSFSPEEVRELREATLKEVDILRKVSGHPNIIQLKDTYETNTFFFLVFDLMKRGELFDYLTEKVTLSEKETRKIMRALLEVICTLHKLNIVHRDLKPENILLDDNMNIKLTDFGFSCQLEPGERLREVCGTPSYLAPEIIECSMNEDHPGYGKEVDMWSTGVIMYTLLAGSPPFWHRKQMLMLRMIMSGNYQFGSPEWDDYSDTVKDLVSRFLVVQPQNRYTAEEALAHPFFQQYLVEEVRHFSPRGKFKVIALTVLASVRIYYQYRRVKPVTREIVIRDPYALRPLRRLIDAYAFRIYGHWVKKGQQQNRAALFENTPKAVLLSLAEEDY
Sequence of AURKB (human) (Q96GD4 whole entry, looked up): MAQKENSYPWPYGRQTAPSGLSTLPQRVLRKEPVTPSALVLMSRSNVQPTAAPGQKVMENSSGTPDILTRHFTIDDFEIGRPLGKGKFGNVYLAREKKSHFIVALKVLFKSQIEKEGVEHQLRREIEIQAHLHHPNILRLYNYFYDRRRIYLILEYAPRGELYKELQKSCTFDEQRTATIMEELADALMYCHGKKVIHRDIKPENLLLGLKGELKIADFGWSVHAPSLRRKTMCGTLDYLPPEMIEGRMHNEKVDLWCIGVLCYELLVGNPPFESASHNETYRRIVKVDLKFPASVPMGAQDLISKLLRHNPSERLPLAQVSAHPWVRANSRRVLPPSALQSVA
Sequence of ABL1 (human) (P00519 whole entry, looked up): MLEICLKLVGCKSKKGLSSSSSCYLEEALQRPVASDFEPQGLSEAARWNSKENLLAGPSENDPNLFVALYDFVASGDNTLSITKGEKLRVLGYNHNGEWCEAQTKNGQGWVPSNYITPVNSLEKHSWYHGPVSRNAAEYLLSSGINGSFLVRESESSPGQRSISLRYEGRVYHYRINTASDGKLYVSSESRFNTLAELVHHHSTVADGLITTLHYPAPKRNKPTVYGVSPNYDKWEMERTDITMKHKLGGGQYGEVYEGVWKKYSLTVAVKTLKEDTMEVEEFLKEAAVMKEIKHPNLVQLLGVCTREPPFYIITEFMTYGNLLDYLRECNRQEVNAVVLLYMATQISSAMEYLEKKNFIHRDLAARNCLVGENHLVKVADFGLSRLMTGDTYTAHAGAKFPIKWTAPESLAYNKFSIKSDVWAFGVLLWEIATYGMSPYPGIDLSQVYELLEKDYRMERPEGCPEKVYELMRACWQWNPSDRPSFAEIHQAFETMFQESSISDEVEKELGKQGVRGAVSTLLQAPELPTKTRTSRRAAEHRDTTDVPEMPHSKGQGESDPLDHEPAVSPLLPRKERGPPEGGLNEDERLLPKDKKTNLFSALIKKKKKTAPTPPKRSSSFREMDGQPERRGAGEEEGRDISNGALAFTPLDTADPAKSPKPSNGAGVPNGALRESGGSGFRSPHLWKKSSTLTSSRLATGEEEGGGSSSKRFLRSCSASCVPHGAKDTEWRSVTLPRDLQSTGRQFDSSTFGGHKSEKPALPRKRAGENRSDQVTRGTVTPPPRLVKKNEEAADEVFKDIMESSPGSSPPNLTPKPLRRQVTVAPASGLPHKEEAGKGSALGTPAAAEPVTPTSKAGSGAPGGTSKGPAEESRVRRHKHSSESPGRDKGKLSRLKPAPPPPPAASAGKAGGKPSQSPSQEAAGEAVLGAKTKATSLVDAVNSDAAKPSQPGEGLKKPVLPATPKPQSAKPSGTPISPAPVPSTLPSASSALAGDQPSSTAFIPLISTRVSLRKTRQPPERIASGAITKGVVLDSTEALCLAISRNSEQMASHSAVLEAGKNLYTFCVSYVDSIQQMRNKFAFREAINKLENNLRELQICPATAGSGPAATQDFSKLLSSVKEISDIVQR
Sequence of STK33 (human) (Q9BYT3 whole entry, looked up): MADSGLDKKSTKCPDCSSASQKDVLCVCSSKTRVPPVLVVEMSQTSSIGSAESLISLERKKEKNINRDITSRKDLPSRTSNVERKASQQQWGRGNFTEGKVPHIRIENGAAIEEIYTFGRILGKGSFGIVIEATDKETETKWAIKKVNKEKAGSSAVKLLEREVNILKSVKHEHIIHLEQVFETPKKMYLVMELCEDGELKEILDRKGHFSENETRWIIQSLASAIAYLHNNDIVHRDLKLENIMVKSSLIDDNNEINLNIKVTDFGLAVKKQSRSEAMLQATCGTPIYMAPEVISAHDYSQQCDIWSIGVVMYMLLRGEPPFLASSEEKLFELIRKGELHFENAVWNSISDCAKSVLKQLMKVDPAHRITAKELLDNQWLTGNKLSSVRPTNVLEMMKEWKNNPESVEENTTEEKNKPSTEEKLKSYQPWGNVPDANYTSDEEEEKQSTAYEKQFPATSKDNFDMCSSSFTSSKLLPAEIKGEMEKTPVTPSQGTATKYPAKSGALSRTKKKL
Sequence of STK16 (human) (O75716 whole entry, looked up): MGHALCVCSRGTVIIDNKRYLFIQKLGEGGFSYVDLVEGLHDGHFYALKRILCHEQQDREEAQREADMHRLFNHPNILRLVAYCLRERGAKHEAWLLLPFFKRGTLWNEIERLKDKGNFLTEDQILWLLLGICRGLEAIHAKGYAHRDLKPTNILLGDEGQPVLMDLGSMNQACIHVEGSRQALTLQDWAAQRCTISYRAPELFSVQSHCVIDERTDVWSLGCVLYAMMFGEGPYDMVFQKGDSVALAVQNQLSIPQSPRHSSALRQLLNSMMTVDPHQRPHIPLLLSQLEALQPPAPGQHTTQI
Sequence of PTK6 (human) (Q13882 whole entry, looked up): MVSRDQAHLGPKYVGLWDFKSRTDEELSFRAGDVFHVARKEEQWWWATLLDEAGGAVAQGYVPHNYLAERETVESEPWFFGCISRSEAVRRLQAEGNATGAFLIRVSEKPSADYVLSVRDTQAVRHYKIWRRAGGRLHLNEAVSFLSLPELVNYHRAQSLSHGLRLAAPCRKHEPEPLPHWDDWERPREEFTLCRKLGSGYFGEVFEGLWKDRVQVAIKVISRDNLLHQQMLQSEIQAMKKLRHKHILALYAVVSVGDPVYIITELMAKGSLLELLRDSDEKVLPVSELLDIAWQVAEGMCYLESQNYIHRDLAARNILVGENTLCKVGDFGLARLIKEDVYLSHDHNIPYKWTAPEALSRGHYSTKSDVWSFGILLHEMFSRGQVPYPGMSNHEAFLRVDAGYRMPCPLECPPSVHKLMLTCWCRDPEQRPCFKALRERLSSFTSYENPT

| SMILES | residual activity (AURKB (human); compound 1.0 µM) [%] | residual activity (AURKB (human); compound 10.0 µM) [%] | residual activity (PHKG1 (human); compound 0.1 µM) [%] | residual activity (PHKG1 (human); compound 1.0 µM) [%] | residual activity (PHKG1 (human); compound 10.0 µM) [%] | other results |
| --- | --- | --- | --- | --- | --- | --- |
| Cc1ccc(Sc2cnc(Nc3cccc(Br)n3)s2)cc1C(=O)N1CCN(C(=O)CN)CC1 | 42 | 7 | 43 | 15 | 2 | residual activity (AURKB (human); compound 0.1 µM): 65% |
| Cc1cc(SCc2sc(-c3ccc(C(F)(F)F)cc3)nc2C)ccc1OCC(=O)O | 110 | 100 |  | 109 | 96 |  |
| NC(=O)c1ccc(-c2ccc(Oc3cncc4sc(-c5nn[nH]n5)cc34)cc2)cc1 | 84 | 58 |  | 100 | 84 |  |
| COc1cc(O)c2c(c1)/C=C/C[C@H](O)[C@H](O)C(=O)/C=C\C[C@H](C)OC2=O | 74 |  | 100 | 89 |  | residual activity (ABL1 (human); compound 0.1 µM): 108%; residual activity (ABL1 (human); compound 1.0 µM): 71%; residual activity (AURKB (human); compound 0.1 µM): 94%; residual activity (PRKCG (human); compound 0.1 µM): 87%; residual activity (PRKCG (human); compound 1.0 µM): 87%; residual activity (PTK6 (human); compound 0.1 µM): 65%; residual activity (PTK6 (human); compound 1.0 µM): 25%; residual activity (STK16 (human); compound 0.1 µM): 103%; residual activity (STK16 (human); compound 1.0 µM): 101%; residual activity (STK33 (human); compound 0.1 µM): 120%; residual activity (STK33 (human); compound 1.0 µM): 85%; residual activity (TEK (human); compound 0.1 µM): 103%; residual activity (TEK (human); compound 1.0 µM): 93%; residual activity (ZAP70 (human); compound 0.1 µM): 110%; residual activity (ZAP70 (human); compound 1.0 µM): 96% |
| Cc1ccc2c(c1)C(=O)[C@@]1(O)CCN(c3ccccc3)C1=N2 |  | 88 |  |  | 114 | residual activity (PHKG1 (human); compound 100.0 µM): 86% |
| O=C(O)c1ccc(-c2c[nH]c3ncc(-c4ccccc4)cc23)cc1C1CCCC1 | 32 | 6 | 34 | 3 | 0 | residual activity (AURKB (human); compound 0.1 µM): 85% |
| Cc1cccc(-c2nn(C(=S)Nc3ccccc3)cc2-c2ccnc3ccccc23)n1 | 102 |  | 100 | 112 |  | residual activity (AURKB (human); compound 0.1 µM): 98% |
| CN1C(=O)[C@@H](Cc2c[nH]c3ccccc23)NC1=S | 104 | 106 |  | 103 | 97 |  |
| O=C1NC(=S)N[C@@H]1Cc1c[nH]c2ccccc12 | 100 | 106 |  | 95 | 96 |  |
| C[C@H]1CCCC(=O)CCC/C=C/c2cc(O)cc(O)c2C(=O)O1 | 37 | 23 |  | 102 | 86 |  |
| O=c1c(O)c(-c2ccc(O)c(O)c2)oc2cc(O)c(O)c(O)c12 | 62 | 8 |  | 98 | 2 |  |
| C/C(=C1/C(=O)Nc2ccc(NC(N)=O)cc21)c1ccc[nH]1 |  |  | 18 |  |  | residual activity (PHKG1 (human); compound 0.001 µM): 97%; residual activity (PHKG1 (human); compound 0.01 µM): 66% |
| NC1(c2ccc(-c3nc4ccn5c(=O)[nH]nc5c4cc3-c3ccccc3)cc2)CCC1 | 88 | 78 | 109 | 98 | 68 | residual activity (AURKB (human); compound 0.1 µM): 106% |
| NC(=O)Nc1ccc2c(c1)/C(=C/c1cc(-c3cccnc3)c[nH]1)C(=O)N2 |  |  | 13 | 1 | 0 |  |
| N#Cc1c(C2CCNCC2)cc(-c2c(O)cccc2OCC2CC2)nc1N | 67 | 42 |  | 77 | 59 |  |
| COc1cc2ncn(-c3cc(OCc4ccccc4S(C)(=O)=O)c(C#N)s3)c2cc1OC | 6 | 4 |  | 5 | 4 |  |
| O=C(Nc1ccccc1-c1cn2c(CN3CCNCC3)csc2n1)c1cnc2ccccc2n1 | 93 | 90 | 96 | 53 | 14 |  |
